Data: patent US8067454B2, “Thio-substituted Anthra [1, 2-d] imidazole- 6, 11-dione derivatives, preparation method and application thereof” (National Defense Medical Center, priority 2010, dated 2011)

Columns and labels:
K-562 = assay: NCI 60-cell drug screen, Leukemia K-562; assay type: cell-based, human; settings: 1.00E−5 Molar
EKVX = assay: NCI 60-cell drug screen, Non-Small Cell Lung Cancer EKVX; assay type: cell-based, human; settings: 1.00E−5 Molar
HS 578T = assay: NCI 60-cell drug screen, Breast Cancer HS 578T; assay type: cell-based, human; settings: 1.00E−5 Molar
TK-10 = assay: NCI 60-cell drug screen, Renal Cancer TK-10; assay type: cell-based, human; settings: 1.00E−5 Molar
IGROV1 = assay: NCI 60-cell drug screen, Ovarian Cancer IGROV1; assay type: cell-based, human; settings: 1.00E−5 Molar
HT29 = assay: NCI 60-cell drug screen, Colon Cancer HT29; assay type: cell-based, human; settings: 1.00E−5 Molar
NCI-H460 = assay: NCI 60-cell drug screen, Non-Small Cell Lung Cancer NCI-H460; assay type: cell-based, human; settings: 1.00E−5 Molar
MDA-MB-435 = assay: NCI 60-cell drug screen, Melanoma MDA-MB-435; assay type: cell-based, human; settings: 1.00E−5 Molar
BT-549 = assay: NCI 60-cell drug screen, Breast Cancer BT-549; assay type: cell-based, human; settings: 1.00E−5 Molar
SK-MEL-5 = assay: NCI 60-cell drug screen, Melanoma SK-MEL-5; assay type: cell-based, human; settings: 1.00E−5 Molar
OVCAR-3 = assay: NCI 60-cell drug screen, Ovarian Cancer OVCAR-3; assay type: cell-based, human; settings: 1.00E−5 Molar
SVG p12 = assay: MTT assay, SVG p12 normal cell; settings: concentration 10 μM, normal cell
SF-539 = assay: NCI 60-cell drug screen, CNS Cancer SF-539; assay type: cell-based, human; settings: 1.00E−5 Molar
HCT-116 = assay: NCI 60-cell drug screen, Colon Cancer HCT-116; assay type: cell-based, human; settings: 1.00E−5 Molar
MDA-MB-468 = assay: NCI 60-cell drug screen, Breast Cancer MDA-MB-468; assay type: cell-based, human; settings: 1.00E−5 Molar
CAKI-1 = assay: NCI 60-cell drug screen, Renal Cancer CAKI-1; assay type: cell-based, human; settings: 1.00E−5 Molar
COLO 205 = assay: NCI 60-cell drug screen, Colon Cancer COLO 205; assay type: cell-based, human; settings: 1.00E−5 Molar
SNB-75 = assay: NCI 60-cell drug screen, CNS Cancer SNB-75; assay type: cell-based, human; settings: 1.00E−5 Molar
[1] = test system: SVG p12, GBM8401 and GBM8901; assay: MTT assay, normal cell versus tumor cells (categories 39-3 to 39-7); settings: tumor cell survival rate less than 80%; FIG. 5A
MDA-MB-231/ATCC = assay: NCI 60-cell drug screen, Breast Cancer MDA-MB-231/ATCC; assay type: cell-based, human; settings: 1.00E−5 Molar
KM12 = assay: NCI 60-cell drug screen, Colon Cancer KM12; assay type: cell-based, human; settings: 1.00E−5 Molar
SR = assay: NCI 60-cell drug screen, Leukemia SR; assay type: cell-based, human; settings: 1.00E−5 Molar
CCRF-CEM = assay: NCI 60-cell drug screen, Leukemia CCRF-CEM; assay type: cell-based, human; settings: 1.00E−5 Molar
NCI-H322M = assay: NCI 60-cell drug screen, Non-Small Cell Lung Cancer NCI-H322M; assay type: cell-based, human; settings: 1.00E−5 Molar
NCI-H226 = assay: NCI 60-cell drug screen, Non-Small Cell Lung Cancer NCI-H226; assay type: cell-based, human; settings: 1.00E−5 Molar
[2] = test system: 60 kinds of different human cancer cells; assay: NCI 60-cell drug screen, whole panel (One Dose Mean Graph); assay type: cell-based; settings: mean over the cell lines of the panel; 1.00E−5 Molar

CCSc1nc2ccc3c(c2[nH]1)C(=O)c1ccccc1C3=O [f1-1, 2-(Ethylthio)-1H-anthra[1,2-d]imidazole-6,11-dione]
Growth Percent, K-562 (K-562): 86.29%
Growth Percent, EKVX (EKVX): 43.67%
Growth Percent, HS 578T (HS 578T): 85.44%
Growth Percent, TK-10 (TK-10): 74.09%
Growth Percent, IGROV1 (IGROV1): 73.41%
Growth Percent, HT29 (HT29): 75.18%
Growth Percent, NCI-H460 (NCI-H460): 38.83%
Growth Percent, MDA-MB-435 (MDA-MB-435): 68.42%
Growth Percent, BT-549 (BT-549): 55.80%
Growth Percent, SK-MEL-5 (SK-MEL-5): 63.93%
Growth Percent, OVCAR-3 (OVCAR-3): 69.27%
Cell survival rate (%) SVG p12 (SVG p12): 98 ± 8%
Growth Percent, SF-539 (SF-539): 58.58%
Growth Percent, HCT-116 (HCT-116): 68.78%
Growth Percent, MDA-MB-468 (MDA-MB-468): 35.36%
Growth Percent, CAKI-1 (CAKI-1): −8.01%
Growth Percent, COLO 205 (COLO 205): 71.84%
Growth Percent, SNB-75 (SNB-75): 73.34%
category 39-3: survival rate higher than 80% for normal cell SVG p12 and inhibits growth of both tumor cells GBM8401 and GBM8901 [1]: in this category
Growth Percent, MDA-MB-231/ATCC (MDA-MB-231/ATCC): 84.79%
Growth Percent, KM12 (KM12): 68.26%
Growth Percent, SR (SR): 129.31%
Growth Percent, CCRF-CEM (CCRF-CEM): 36.87%
Growth Percent, NCI-H322M (NCI-H322M): 33.44%
Growth Percent, NCI-H226 (NCI-H226): 62.07%
Growth Percent, Mean [2]: 67.96%
